How the values were obtained:
GAL4EcR + VP16RXR = assay: Transactivation of reporter genes through switch 1.1 in CHO cells; format: cell-based, Choristoneura fumiferana; settings: switch 1.1 GAL4EcR + VP16RXR, pGAL4RELuc
Procedure: (§1) The cells were harvested and reporter activity was assayed.
(§2) Cells were harvested 24-48 hr after adding ligands. […] Twenty μl of lysate was assayed.

GAL4USP + VP16CfEcR [1] = assay: Transactivation of reporter genes through switch 1.5 in CHO cells; format: cell-based, Choristoneura fumiferana; settings: switch 1.5 GAL4USP + VP16CfEcR, pGAL4RELuc
Procedure: (§3) This construct was prepared in the same way as switch 1.3 except MmRXRDEF was replaced with CfUSPDEF (SEQ ID NO: 58).
as §1, §2

GAL4CfEcRVP16 [2] = assay: Transactivation of reporter genes through switch 1.6 in CHO cells; format: cell-based, Choristoneura fumiferana; settings: switch 1.6 GAL4CfEcRVP16, pGAL4RELuc
Procedure: (§4) This construct was prepared so that both the GAL4 DNABD and the VP16AD were placed on the same molecule. GAL4DNABD (SEQ ID NO: 41) and VP16AD (SEQ ID NO: 45) were fused to CfEcRDEF (SEQ ID NO: 3) at N- and C-termini respectively.
as §1, §2

DmVgRXR + MmRXR [3] = molecular target: T1, DmVgRXR + MmRXR (Drosophila melanogaster, UniProt P34021, E282G/G283S/G286V); assay: Transactivation of reporter genes through switch 1.8 in CHO cells; format: cell-based; settings: switch 1.8 DmVgRXR + MmRXR, pIND(SP1)LacZ
T1 construct: host or cells: CHO, NIH3T3, 293 or CV1 cells (one cell line per assay)
From the text: (§5) This system was purchased from Invitrogen Corp., Carlsbad, Calif. It comprises a Drosophila melanogaster EcR (“DmEcR”) with a modified DNABD fused to VP16AD and placed under the control of a CMV promoter (SEQ ID NO: 60). Full length MmRXR (SEQ ID NO: 53) was placed under the control of the RSV promoter (SEQ ID NO: 61). The reporter, pIND(SP1)LacZ, contains five copies of a modified ecdysone response element (“EcRE”, E/GRE), three copies of an SP1 enhancer, and a minimal heat shock promoter, all of which were placed upstream to the LacZ reporter gene.
as §1, §2

CfVgRXR [4] = assay: Transactivation of reporter genes through switch 1.10 in CHO cells; format: cell-based, Choristoneura fumiferana; settings: switch 1.10 CfVgRXR, pIND(SP1)LacZ
Procedure: (§6) This example was prepared in the same way as switch 1.9 except MmRXR (SEQ ID NO: 53) was deleted.
as §1, §2

GAL4USP + VP16CfEcR [5] = assay: Transactivation of reporter genes through switch 1.5 in 3T3 cells; format: cell-based, Choristoneura fumiferana; settings: switch 1.5 GAL4USP + VP16CfEcR, pGAL4RELuc
Procedure: as §3
(§7) The cells were plated when they reached 50% confluency.
as §2

CfVgRXR + MmRXR = assay: Transactivation of reporter genes through switch 1.9 in 3T3 cells; format: cell-based, Choristoneura fumiferana; settings: switch 1.9 CfVgRXR + MmRXR, pIND(SP1)LacZ
Procedure: This example was prepared in the same way as switch 1.8 except DinEcR was replaced with a truncated CfEcR comprising a partial A/B domain and the complete CDEF domains [SEQ ID NO: 62 (polynucleotide) and SEQ ID NO: 63 (polypeptide)].
as §7, §2

GAL4USP + VP16CfEcR [6] = assay: Transactivation of reporter genes through switch 1.5 in 293 cells; format: cell-based, Choristoneura fumiferana; settings: switch 1.5 GAL4USP + VP16CfEcR, pGAL4RELuc
Procedure: as §3
(§8) The same procedures described for CHO were followed for 293 cells except that the cells were plated in biocoated plates to avoid clumping.
as §2

GAL4CfEcRVP16 [7] = assay: Transactivation of reporter genes through switch 1.6 in 293 cells; format: cell-based, Choristoneura fumiferana; settings: switch 1.6 GAL4CfEcRVP16, pGAL4RELuc
Procedure: as §4, §8, §2

GAL4RXR + VP16CfEcR = assay: Transactivation of reporter genes through switch 1.3 in CV1 cells; format: cell-based, Choristoneura fumiferana; settings: switch 1.3 GAL4RXR + VP16CfEcR, pGAL4RELuc
Procedure: (§9) The same procedures described for NIH3T3 cells were followed for CV1 cells
as §2

GAL4USP + VP16CfEcR [8] = assay: Transactivation of reporter genes through switch 1.5 in CV1 cells; format: cell-based, Choristoneura fumiferana; settings: switch 1.5 GAL4USP + VP16CfEcR, pGAL4RELuc
Procedure: as §3, §9, §2

DmVgRXR + MmRXR [9] = molecular target: T1, DmVgRXR + MmRXR; assay: Transactivation of reporter genes through switch 1.8 in CV1 cells; format: cell-based; settings: switch 1.8 DmVgRXR + MmRXR, pIND(SP1)LacZ
From the text: as §5, §9, §2

CfVgRXR [10] = assay: Transactivation of reporter genes through switch 1.10 in CV1 cells; format: cell-based, Choristoneura fumiferana; settings: switch 1.10 CfVgRXR, pIND(SP1)LacZ
Procedure: as §6, §9, §2

GAL4RXR + VP16DmEcR = molecular target: T2, GAL4RXR + VP16DmEcR (Drosophila melanogaster, UniProt P34021); assay: Transactivation of reporter genes through switch 1.4 in CHO cells; format: cell-based; design: expressed in transfected cells; host or cells: CHO cells (transient co-transfection); settings: switch 1.4 GAL4RXR + VP16DmEcR, pGAL4RELuc
T2 sequence (P34021 254-878): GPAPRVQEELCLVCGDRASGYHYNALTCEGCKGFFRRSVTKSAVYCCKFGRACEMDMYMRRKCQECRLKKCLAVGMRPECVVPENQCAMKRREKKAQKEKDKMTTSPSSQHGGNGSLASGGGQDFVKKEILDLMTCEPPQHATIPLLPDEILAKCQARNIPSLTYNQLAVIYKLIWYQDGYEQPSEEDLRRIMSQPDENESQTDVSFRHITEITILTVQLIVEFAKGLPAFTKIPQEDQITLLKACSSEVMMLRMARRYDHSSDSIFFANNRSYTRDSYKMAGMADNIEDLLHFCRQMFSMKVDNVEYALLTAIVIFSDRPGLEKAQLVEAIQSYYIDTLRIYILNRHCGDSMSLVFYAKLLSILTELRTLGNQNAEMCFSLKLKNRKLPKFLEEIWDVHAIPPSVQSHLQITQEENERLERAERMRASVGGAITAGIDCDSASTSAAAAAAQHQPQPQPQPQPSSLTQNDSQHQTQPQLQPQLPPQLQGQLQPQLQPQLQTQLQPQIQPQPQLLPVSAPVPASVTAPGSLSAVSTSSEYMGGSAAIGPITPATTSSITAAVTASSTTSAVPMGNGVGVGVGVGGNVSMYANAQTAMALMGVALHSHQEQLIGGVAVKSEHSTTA
T2 sequence (P28700 206-467 partner limits assumed): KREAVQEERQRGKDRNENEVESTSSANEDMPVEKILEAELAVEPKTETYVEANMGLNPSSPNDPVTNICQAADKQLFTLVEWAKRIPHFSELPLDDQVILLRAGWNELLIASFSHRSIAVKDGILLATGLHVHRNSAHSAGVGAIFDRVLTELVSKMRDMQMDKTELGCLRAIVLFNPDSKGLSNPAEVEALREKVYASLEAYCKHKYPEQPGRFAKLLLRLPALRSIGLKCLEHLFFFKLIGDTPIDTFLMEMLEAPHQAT
Procedure: This construct was prepared in the same way as switch 1.3 except CfEcRCDEF was replaced with DmEcRCDEF (SEQ ID NO: 6).
as §1, §2

T1 sequence (P34021 whole entry E282G/G283S/G286V): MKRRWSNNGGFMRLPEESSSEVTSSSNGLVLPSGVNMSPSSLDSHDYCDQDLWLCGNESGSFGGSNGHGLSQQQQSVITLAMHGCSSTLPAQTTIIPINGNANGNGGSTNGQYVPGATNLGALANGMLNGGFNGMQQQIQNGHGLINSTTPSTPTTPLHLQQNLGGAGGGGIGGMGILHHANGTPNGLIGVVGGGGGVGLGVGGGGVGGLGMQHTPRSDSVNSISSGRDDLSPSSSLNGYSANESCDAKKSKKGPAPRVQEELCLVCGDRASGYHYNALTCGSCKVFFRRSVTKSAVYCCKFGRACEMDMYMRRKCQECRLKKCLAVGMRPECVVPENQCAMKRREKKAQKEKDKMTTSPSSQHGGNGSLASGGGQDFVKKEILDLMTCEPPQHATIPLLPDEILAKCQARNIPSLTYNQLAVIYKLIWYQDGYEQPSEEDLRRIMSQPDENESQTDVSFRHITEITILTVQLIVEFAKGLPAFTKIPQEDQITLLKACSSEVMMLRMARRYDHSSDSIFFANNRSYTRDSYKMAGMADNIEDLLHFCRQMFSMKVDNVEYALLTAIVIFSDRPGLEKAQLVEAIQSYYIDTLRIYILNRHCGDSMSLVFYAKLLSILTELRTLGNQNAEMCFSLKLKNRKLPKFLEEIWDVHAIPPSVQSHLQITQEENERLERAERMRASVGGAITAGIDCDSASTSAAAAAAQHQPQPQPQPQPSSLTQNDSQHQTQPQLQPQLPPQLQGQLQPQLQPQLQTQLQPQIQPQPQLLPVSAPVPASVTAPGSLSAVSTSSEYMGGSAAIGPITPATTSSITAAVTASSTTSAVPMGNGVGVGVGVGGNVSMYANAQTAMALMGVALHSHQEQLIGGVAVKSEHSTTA
T1 sequence (P28700 whole entry, further chain): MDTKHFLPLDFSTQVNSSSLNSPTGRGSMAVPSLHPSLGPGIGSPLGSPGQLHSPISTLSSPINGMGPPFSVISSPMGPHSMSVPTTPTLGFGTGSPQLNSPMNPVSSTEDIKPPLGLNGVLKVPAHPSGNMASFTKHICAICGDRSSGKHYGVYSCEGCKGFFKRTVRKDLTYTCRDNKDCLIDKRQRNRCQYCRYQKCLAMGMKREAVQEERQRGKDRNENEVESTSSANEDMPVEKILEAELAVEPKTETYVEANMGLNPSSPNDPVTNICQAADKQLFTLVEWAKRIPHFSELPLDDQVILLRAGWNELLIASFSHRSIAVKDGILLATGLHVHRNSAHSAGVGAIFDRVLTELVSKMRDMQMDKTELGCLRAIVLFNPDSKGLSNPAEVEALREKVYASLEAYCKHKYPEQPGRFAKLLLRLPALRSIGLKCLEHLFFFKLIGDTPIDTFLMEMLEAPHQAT

CCc1c(OC)cccc1C(=O)NN(C(=O)c1cc(C)cc(C)c1)C(C)(C)C [N-(2-ethyl-3-methoxybenzoyl)-N′-(3,5-dimethylbenzoyl)-N′-tert-butylhydrazine]
Mean Fold Activation with 50 μM N-(2-ethyl-3-methoxybenzoyl)-N′-(3,5-dimethylbenzoyl)-N′-t-butylhydrazine (GAL4EcR + VP16RXR): 267 fold | Mean Fold Activation with 50 μM N-(2-ethyl-3-methoxybenzoyl)-N′-(3,5-dimethylbenzoyl)-N′-t-butylhydrazine (GAL4USP + VP16CfEcR [1]): 2 fold | Mean Fold Activation with 50 μM N-(2-ethyl-3-methoxybenzoyl)-N′-(3,5-dimethylbenzoyl)-N′-t-butylhydrazine (GAL4CfEcRVP16 [2]): 9 fold | Mean Fold Activation with 50 μM N-(2-ethyl-3-methoxybenzoyl)-N′-(3,5-dimethylbenzoyl)-N′-t-butylhydrazine (DmVgRXR + MmRXR [3]): 14 fold | Mean Fold Activation with 50 μM N-(2-ethyl-3-methoxybenzoyl)-N′-(3,5-dimethylbenzoyl)-N′-t-butylhydrazine (CfVgRXR [4]): 29 fold | Mean Fold Activation Through N-(2-ethyl-3-methoxybenzoyl)-N′-(3,5-dimethylbenzoyl)-N′-t-butylhydrazine (GAL4USP + VP16CfEcR [5]): 3 fold | Mean Fold Activation Through N-(2-ethyl-3-methoxybenzoyl)-N′-(3,5-dimethylbenzoyl)-N′-t-butylhydrazine (CfVgRXR + MmRXR): 19 fold | Mean Fold Activation Through N-(2-ethyl-3-methoxybenzoyl)-N′-(3,5-dimethylbenzoyl)-N′-t-butylhydrazine (GAL4USP + VP16CfEcR [6]): 2 fold | Mean Fold Activation Through N-(2-ethyl-3-methoxybenzoyl)-N′-(3,5-dimethylbenzoyl)-N′-t-butylhydrazine (GAL4CfEcRVP16 [7]): 3 fold | Mean Fold Activation Through N-(2-ethyl-3-methoxybenzoyl)-N′-(3,5-dimethylbenzoyl)-N′-t-butylhydrazine (GAL4RXR + VP16CfEcR): 25 fold | Mean Fold Activation Through N-(2-ethyl-3-methoxybenzoyl)-N′-(3,5-dimethylbenzoyl)-N′-t-butylhydrazine (GAL4USP + VP16CfEcR [8]): 3 fold | Mean Fold Activation Through N-(2-ethyl-3-methoxybenzoyl)-N′-(3,5-dimethylbenzoyl)-N′-t-butylhydrazine (DmVgRXR + MmRXR [9]): 12 fold | Mean Fold Activation Through N-(2-ethyl-3-methoxybenzoyl)-N′-(3,5-dimethylbenzoyl)-N′-t-butylhydrazine (CfVgRXR [10]): 1 fold | Mean Fold Activation with 50 μM N-(2-ethyl-3-methoxybenzoyl)-N′-(3,5-dimethylbenzoyl)-N′-t-butylhydrazine (GAL4RXR + VP16DmEcR): 312 fold
